Molecules are shown by their SMILES.

This experiment relates to T1, Aat1.
T1 construct: full length, 6x-His-tag in pET-30a(+) (EcoRI/HindIII), E. coli Rosetta-gami 2(DE3)pLysS, Ni-NTA purified
The experiment in a line: UHPLC product quantification at […] nm, Michaelis-Menten fit. The settings on record: 100 mM potassium phosphate pH 8.0, 30 °C. Format: biochemical, Zea mays.

[1] abbreviates: acyl donor, 120 µM cyanidin 3-O-glucoside, donor 5-30 µM.
Where [2] appears, read: 60 µM malonyl-CoA, substrate 5-120 µM.

For the compound `CC(C)(COP(=O)(O)OP(=O)(O)OC[C@H]1O[C@@H](n2cnc3c(N)ncnc32)[C@H](O)[C@@H]1OP(=O)(O)O)[C@@H](O)C(=O)NCCC(=O)NCCSC(=O)CC(=O)O` [Malonyl-CoA], the Km (in general, the concentration of substrate that gives half-maximal velocity) under setting [1] stood at 40.12 ± 0.04 µM.

For `OC[C@H]1O[C@@H](Oc2cc3c(O)cc(O)cc3[o+]c2-c2ccc(O)cc2)[C@H](O)[C@@H](O)[C@@H]1O` [Pelargonidin 3-O-Glucoside], the Km under setting [2] is 8.92 ± 0.41 µM.

In the case of `COc1cc(-c2[o+]c3cc(O)cc(O)c3cc2O[C@@H]2O[C@H](CO)[C@@H](O)[C@H](O)[C@H]2O)ccc1O` [Peonidin 3-O-Glucoside], the Km under setting [2] worked out at 5.14 ± 0.93 µM.

As to `CC(C)(COP(=O)(O)OP(=O)(O)OC[C@H]1O[C@@H](n2cnc3c(N)ncnc32)[C@H](O)[C@@H]1OP(=O)(O)O)[C@@H](O)C(=O)NCCC(=O)NCCSC(=O)CCC(=O)O` [Succinyl-CoA], the Km under setting [1] was 60.09 ± 0.02 µM.

With `OC[C@H]1O[C@@H](Oc2cc3c(O)cc(O)cc3[o+]c2-c2ccc(O)c(O)c2)[C@H](O)[C@@H](O)[C@@H]1O` [compound 1, Cyanidin 3-O-Glucoside], the Km under setting [2] stood at 13.1 ± 0.23 µM.

On to `O=C(O)CC(=O)OC[C@H]1O[C@@H](Oc2cc3c(O)cc(O)cc3[o+]c2-c2ccc(O)c(O)c2)[C@H](O)[C@@H](O)[C@@H]1O` [compound 2, Cyanidin 3-O-6”-Malonylglucoside], for which, under “60 µM malonyl-CoA, substrate 2.5-30 µM, semi-preparative fraction of 91.95% purity”, the Michaelis constant (Km) was 1.33 ± 3.97 µM.

The values above are taken from PMC8037723, “Functional Characterization of an Anthocyanin Dimalonyltransferase in Maize” (Molecules, 2021).
